Results reported in patent US12590100B2, “Tetrahydro-spiroindoline-pyrrolopyrrole-triones inhibitors of the NRF2-β-TrCP interaction for use in the treatment of fatty liver disease” (Universidad Autonoma De Madrid, priority 2021, dated 2026).

Molecular target: SCF-βTrCP / NRF2 (Homo sapiens, UniProt Q9Y297)
Test: In vitro ubiquitination of phosphorylated NRF2 by the βTrCP complex
Assay type: biochemical
Settings: for ubiquitination (polyubiquitination) of NRF2 by βTrCP: PHAR 3 μM, 1 hour at 25° C., western blot
Protocol: In vitro kinase assay and in vitro ubiquitination. For the recognition and degradation of NRF2 by βTrCP, the serines 335, 338, 342 and 347 located at the Neh6 domain of NRF2 need to be previously phosphorylated by the kinase GSK-3β (FIG. 1). Therefore, to obtain the phosphorylated substrate, 20 ng recombinant NRF2-DETGE was used together with 0.5 μg of recombinant GSK-3β incubated at 30° C. for 60 min. The result was analyzed by western blot. After confirming the existence of phosphorylation in the residues of interest, an in vitro ubiquitination assay was carried out using the recombinant proteins that make up the E3 ubiquitin ligase complex. The ubiquitination reaction was carried out using: ATP (2 mM), […], SCF-βTrCP (450 nM), and non-phosphorylated or phosphorylated NRF2 (20 ng), in a specific ubiquitination buffer (30 mM Tris pH 7.6, 5 mM MgCl2, 2 mM dithiothreitol, 100 mM NaCl). Before the ubiquitination reactions, the E1, Cdc34b, and ubiquitin components were incubated together for 2 min to allow the E2 thioester bond to form. The reactions were incubated for 1 hour at 25° C. in the presence or absence of PHAR (3 μM) in order to determine whether or not PHAR inhibits ubiquitination by βTrCP. […] The PI3K/AKT signaling pathway is inhibited, and therefore GSK-3β is activated with the PI3K inhibitor, LY294002. As a result, NRF2 is phosphorylated by GSK-3β and marked for degradation by means of interaction with β-TrCP. Therefore, if PHAR is capable of inhibiting βTrCP-NRF2 interaction, the NRF2 levels will remain stable independently of the activation and phosphorylation by GSK-3β. […]
FIG. 6. […] Phosphorylation at residues 335, 338, 342 and 347 was analyzed by western blot. […] Polyubiquitinated NRF2 was detected by western blot with anti-ubiquitin antibody. […] E), densitometric analysis of NRF2 protein levels of the representative immunoblot of (D), expressed as a ratio of NRF2/GAPDH. […] G), densitometric analysis of NRF2 and HO1 protein levels of the representative immunoblots of (F), expressed as a ratio of NRF2 and HO1/GAPDH. […]

SCF-βTrCP / NRF2, sequence (Q9Y297 whole entry): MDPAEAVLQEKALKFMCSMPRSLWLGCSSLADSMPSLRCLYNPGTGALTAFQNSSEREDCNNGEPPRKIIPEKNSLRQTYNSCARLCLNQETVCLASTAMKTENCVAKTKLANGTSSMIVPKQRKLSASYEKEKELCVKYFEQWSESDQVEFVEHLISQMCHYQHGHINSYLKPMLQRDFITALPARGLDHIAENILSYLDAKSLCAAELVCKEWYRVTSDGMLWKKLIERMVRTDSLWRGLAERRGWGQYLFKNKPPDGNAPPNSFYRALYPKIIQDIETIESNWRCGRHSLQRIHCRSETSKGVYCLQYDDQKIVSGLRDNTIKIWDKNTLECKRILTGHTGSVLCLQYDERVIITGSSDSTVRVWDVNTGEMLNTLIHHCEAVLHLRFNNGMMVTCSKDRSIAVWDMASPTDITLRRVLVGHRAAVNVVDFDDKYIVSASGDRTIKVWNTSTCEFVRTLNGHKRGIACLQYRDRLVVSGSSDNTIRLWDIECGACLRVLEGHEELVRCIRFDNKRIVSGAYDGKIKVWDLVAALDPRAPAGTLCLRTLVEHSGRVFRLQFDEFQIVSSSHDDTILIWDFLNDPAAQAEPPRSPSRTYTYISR
SCF-βTrCP / NRF2, sequence (P63208 whole entry partner): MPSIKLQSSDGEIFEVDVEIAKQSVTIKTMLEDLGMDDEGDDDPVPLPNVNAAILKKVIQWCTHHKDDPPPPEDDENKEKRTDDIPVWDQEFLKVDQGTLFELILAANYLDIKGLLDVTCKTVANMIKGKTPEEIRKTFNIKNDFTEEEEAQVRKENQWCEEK
SCF-βTrCP / NRF2, sequence (Q13616 whole entry partner): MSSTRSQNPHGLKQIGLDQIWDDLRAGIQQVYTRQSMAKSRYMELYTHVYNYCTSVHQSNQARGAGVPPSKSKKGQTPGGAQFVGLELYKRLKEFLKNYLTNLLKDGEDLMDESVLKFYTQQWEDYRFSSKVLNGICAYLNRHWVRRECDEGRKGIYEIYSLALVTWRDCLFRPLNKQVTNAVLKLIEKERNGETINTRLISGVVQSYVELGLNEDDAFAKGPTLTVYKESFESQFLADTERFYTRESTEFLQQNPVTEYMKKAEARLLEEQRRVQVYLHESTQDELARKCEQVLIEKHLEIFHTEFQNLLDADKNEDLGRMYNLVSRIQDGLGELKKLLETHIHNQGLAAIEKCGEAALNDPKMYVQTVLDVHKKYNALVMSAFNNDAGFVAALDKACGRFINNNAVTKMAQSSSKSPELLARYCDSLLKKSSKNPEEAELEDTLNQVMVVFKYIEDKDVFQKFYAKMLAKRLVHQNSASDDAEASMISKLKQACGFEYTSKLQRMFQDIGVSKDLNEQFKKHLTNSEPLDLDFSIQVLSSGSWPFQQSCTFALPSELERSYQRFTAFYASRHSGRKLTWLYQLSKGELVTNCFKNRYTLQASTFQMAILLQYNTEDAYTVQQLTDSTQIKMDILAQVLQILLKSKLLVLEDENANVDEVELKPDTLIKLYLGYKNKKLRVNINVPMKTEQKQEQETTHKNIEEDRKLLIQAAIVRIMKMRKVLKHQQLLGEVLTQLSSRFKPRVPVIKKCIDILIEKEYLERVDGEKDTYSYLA
SCF-βTrCP / NRF2, sequence (P62877 whole entry partner): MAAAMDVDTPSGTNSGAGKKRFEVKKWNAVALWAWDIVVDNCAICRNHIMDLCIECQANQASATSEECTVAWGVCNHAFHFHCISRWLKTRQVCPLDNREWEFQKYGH

## O=C1[C@@H]2[C@H](Cc3c[nH]c4ccccc34)N[C@]3(C(=O)Nc4ccc(Cl)cc43)[C@@H]2C(=O)N1c1ccc2c(c1)OCCO2 [PHAR]
  ubiquitination (polyubiquitination) of NRF2 by βTrCP: prevents the ubiquitination of NRF2
Listed as PH
  ubiquitination (polyubiquitination) of NRF2 by βTrCP: polyubiquitination was considerably lower
Dose curve 3-3000 nM
  concentration from which substrate polyubiquitination starts to be reduced: 100 nM
